# Results published in patent US11358936B2, “Lysyl oxidase-like 2 inhibitors and uses thereof” (PharmAkea, Inc., priority 2015, dated 2022).
# Counter-ions that a name gives are not always drawn.
# Molecular target: human LOXL2 (Homo sapiens (Human), UniProt Q9Y4K0)
# Assay: Human LOXL2 Amine Oxidase Activity Assay (Amplex Red fluorescence)
# Type: biochemical
# Conditions: concentrated conditioned media from CHO cells stably expressing human LOXL2; 2 h at 37° C. preincubation; DAP substrate; read-out: IC50
# Description: LOXL2 amine oxidase activity is evaluated by measuring Amplex Red fluorescence using 10-20× concentrated conditioned media from CHO cells stably expressing human LOXL2. To assay for amine oxidase activity, 10 μL of the concentrated conditioned media is incubated with 2 μL of test compound in DMSO and 73 μL Assay Buffer (50 mM Borate Buffer, pH8) for 2 h at 37° C. After the 2 h incubation, 5 μl of 10 mM 1,5-Diaminopentane (DAP) diluted in Assay Buffer and 10 μl of Amplex Red Mix (8.5 μl Assay Buffer+0.5 μl of 10 mM Amplex Red+1 μl of 500 U/ml Horseradish Peroxidase) are added and the plate mixed and immediately placed on the FlexStaion for fluorescence measurements. Fluorescence is read in kinetic mode every 2 min for 1 hour at excitation=544 and emission=590. The amine oxidase activity is calculated from the slope of the linear portion of the curve.
# Sequence of human LOXL2 (Q9Y4K0 26-774): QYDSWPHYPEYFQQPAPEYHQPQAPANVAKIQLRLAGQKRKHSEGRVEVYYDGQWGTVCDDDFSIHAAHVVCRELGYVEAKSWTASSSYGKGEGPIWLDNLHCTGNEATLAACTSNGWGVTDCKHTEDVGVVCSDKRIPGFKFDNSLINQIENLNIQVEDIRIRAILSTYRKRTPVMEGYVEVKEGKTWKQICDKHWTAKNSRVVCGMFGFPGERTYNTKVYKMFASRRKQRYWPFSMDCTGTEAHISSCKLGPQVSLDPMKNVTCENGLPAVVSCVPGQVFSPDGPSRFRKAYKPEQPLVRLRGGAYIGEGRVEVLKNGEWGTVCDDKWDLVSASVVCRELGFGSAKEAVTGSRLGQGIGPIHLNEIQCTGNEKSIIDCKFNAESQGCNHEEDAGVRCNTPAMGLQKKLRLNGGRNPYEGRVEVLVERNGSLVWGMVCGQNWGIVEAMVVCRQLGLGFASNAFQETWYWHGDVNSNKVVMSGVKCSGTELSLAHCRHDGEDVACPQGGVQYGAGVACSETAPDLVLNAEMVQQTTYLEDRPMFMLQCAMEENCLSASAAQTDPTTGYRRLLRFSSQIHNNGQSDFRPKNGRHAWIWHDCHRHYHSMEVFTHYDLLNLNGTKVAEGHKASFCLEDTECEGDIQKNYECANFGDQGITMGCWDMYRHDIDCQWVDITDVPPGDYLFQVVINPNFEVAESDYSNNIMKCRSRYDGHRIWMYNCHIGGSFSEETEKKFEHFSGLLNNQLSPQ
row,Structure (SMILES),IC50 [nM]
1,"NCc1ccnc(OC2CCCCC2)c1 [Compound 4-7, 2-Cyclohexyloxy-4-(aminomethyl)pyridine]",< 300
2,"CCN1CCN(c2cc(CN)ccn2)CC1 [Compound 4-12, 2-(4-Ethylpiperazin-1-yl)-4-(aminomethyl)pyridine]",> 1000
3,"NCc1ccnc(Oc2ccc(F)cc2)c1 [Compound 4-8, 2-(4-Fluorophenoxy)-4-(aminomethyl)pyridine]",< 300
4,"NCc1ccnc(Oc2cccc(C(=O)NCc3ccc(F)cc3F)c2)c1 [Compound 1-30, 3-((4-(Aminomethyl)pyridin-2-yl)oxy)-N-(2,4-difluorobenzyl)benzamide hydrochloride]",< 300
5,"NCc1ccnc(-n2ccnc2)c1 [Compound 4-11, 2-(Imidazol-1-yl)-4-(aminomethyl)pyridine]",< 300
6,"NCc1ccnc(Oc2ccc(C(=O)Nc3ccccc3)cc2)c1 [Compound 1-13, 4-((4-(Aminomethyl)pyridin-2-yl)oxy)-N-phenylbenzamide hydrochloride]",< 300
7,"NCc1ccnc(O[C@H]2CCCN(C(=O)Nc3ccccc3)C2)c1 [Compound 2-39, (A)-3-((4-(Aminomethyl)pyridin-2-yl)oxy)-N-phenylpiperidine-1-carboxamide trifluoroacetate]",< 300
8,"NCc1ccnc(Oc2cccc(C(=O)Nc3ccc(C(F)(F)F)cc3)c2)c1 [Compound 1-22, 3-((4-(Aminomethyl)pyridin-2-yl)oxy)-N-(4-(trifluoromethyl)phenyl)benzamide hydrochloride]",< 300
9,"NCc1ccnc(O[C@H]2CCCN(C(=O)c3ccccc3)C2)c1 [Compound 2-38, (S)-(3-((4-(Aminomethyl)pyridin-2-yl)oxy)piperidin-1-yl)(phenyl)methanone trifluoroacetate]",< 300
10,"NCc1ccnc(Oc2cccc3c2ccn3Cc2ccccc2)c1 [Compound 2-10, (2-((1-Benzyl-1H-indol-4-yl)oxy)pyridin-4-yl)methanamine hydrochloride]",< 300
11,"NCc1ccnc(Oc2cccc3c2ccn3CC(=O)N2CCCC(O)(C(F)(F)F)C2)c1 (single isomer, unassigned) [Compound 2-28, (R) or (S)-2-(4-((4-(Aminomethyl)pyridin-2-yl)oxy)-1H-indol-1-yl)-1-(3-hydroxy-3-(trifluoromethyl)piperidin-1-yl)ethan-1-one hydrochloride]",< 300

# Results, then the molecule that gave them:
row,IC50 [nM],Structure (SMILES)
1,300 to 1000,"NCc1cc(Oc2cccc(Oc3ccccc3)c2)nc(-c2ccc(F)cc2)c1 [Compound 3-3, (2-(4-Fluorophenyl)-6-(3-phenoxyphenoxy)pyridin-4-yl)methanamine trifluoroacetate]"
2,< 300,"CN(C)C(=O)Cn1ccc2c(Oc3cc(CN)ccn3)cccc21 [Compound 2-26, 2-(4-((4-(Aminomethyl)pyridin-2-yl)oxy)-1H-indol-1-yl)-N,N-dimethylacetamide hydrochloride]"
3,< 300,"NCc1ccnc(Oc2cccc(C(=O)Nc3ccc(C(=O)O)cc3)c2)c1 [Compound 1-29, 4-(3-((4-(Aminomethyl)pyridin-2-yl)oxy)benzamido)benzoic acid hydrochloride]"
4,< 300,"NCc1ccnc(Oc2cccc3c2ccn3Cc2cnc(C(F)(F)F)s2)c1 [Compound 2-17, (2-((1-((2-(Trifluoromethyl)thiazol-5-yl)methyl)-1H-indol-4-yl)oxy)pyridin-4-ylmethanamine hydrochloride]"
5,< 300,"NCc1ccnc(Oc2cccc3c2CCN3c2nc3ccc(F)cc3s2)c1 [Compound 2-33, (2-((1-(6-Fluorobenzo[d]thiazol-2-yl)indolin-4-yl)oxy)pyridin-4-yl)methanamine hydrochloride]"
6,< 300,"NCc1ccnc(-c2cccc(C(=O)NCc3ccccc3)c2)c1 [Compound 1-8, 3-(4-(Aminomethyl)pyridin-2-yl)-N-benzylbenzamide hydrochloride]"
7,300 to 1000,"COCCNC(=O)c1ccc(Oc2cc(CN)ccn2)cc1 [Compound 1-11, 4-((4-(Aminomethyl)pyridin-2-yl)oxy)-N-(2-methoxyethyl)benzamide hydrochloride]"
